{"source": "patent US7109380B2", "about": "“Cyclopentenedione antifungal compounds and methods for their use” (The University of Mississippi, priority 2004, dated 2006)", "system": "C. albicans ATCC 90028", "assay": "In vitro antimicrobial assay (modified NCCLS), Candida media pH 4.5", "assay_type": "cell-based, Candida albicans", "conditions": "Candida albicans", "data": [{"smiles": "COC(/C=C/c1ccccc1)=C1\\C(=O)C=C(C)C1=O", "note": "[Compound 1, coruscanone A]", "values": [{"measurement": "IC50", "setting": "ATCC90028, pH 4.5, read-out: IC50 (50% inhibitory concentration)", "result": 0.2, "unit": "µg/mL"}, {"measurement": "MFC", "setting": "ATCC90028, C. albicans ATCC 90028, pH 4.5, Table 3, read-out: MFC", "result": 0.63, "unit": "µg/mL"}, {"measurement": "MIC", "setting": "ATCC90028, C. albicans ATCC 90028, pH 4.5, Table 3, read-out: MIC", "result": 0.31, "unit": "µg/mL"}]}]}
